# Assay results reported in ChEMBL document CHEMBL1147799, “An integrated in silico 3D model-driven discovery of a novel, potent, and selective amidosulfonamide 5-HT1A agonist (PRX-00023) for the treatment of anxiety and depression” (J Med Chem, 2006).
# Calls of active or inactive are those of the source. The rule behind the calls is not given here.
# Key:
# [1] = target: 5-hydroxytryptamine receptor 2B (Homo sapiens, UniProt P41595); experiment: Binding affinity to 5HT2B receptor by radioligand binding assay
# [2] = target: 5-hydroxytryptamine receptor 4 (Homo sapiens, UniProt Q13639); experiment: Binding affinity to human 5HT4e receptor by radioligand binding assay
# Chain of 5-hydroxytryptamine receptor 4 (Q13639 whole entry): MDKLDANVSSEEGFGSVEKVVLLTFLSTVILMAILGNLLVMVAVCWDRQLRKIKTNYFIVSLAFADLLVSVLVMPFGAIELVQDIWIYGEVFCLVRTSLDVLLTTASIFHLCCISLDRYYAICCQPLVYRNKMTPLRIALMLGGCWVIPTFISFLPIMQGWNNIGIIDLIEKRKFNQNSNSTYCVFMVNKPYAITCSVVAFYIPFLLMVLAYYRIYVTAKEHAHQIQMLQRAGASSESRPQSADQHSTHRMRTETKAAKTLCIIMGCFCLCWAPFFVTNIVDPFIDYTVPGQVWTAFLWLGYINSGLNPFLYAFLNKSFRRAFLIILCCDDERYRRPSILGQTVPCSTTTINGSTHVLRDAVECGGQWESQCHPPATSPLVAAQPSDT
# Cytochrome P450 1A2 = Cytochrome P450 1A2 (Homo sapiens, UniProt P05177); experiment: Inhibition of human recombinant cytochrome P450 1A2; type: ADME; details: recombinant enzyme
# Chain of Cytochrome P450 1A2 (P05177 whole entry): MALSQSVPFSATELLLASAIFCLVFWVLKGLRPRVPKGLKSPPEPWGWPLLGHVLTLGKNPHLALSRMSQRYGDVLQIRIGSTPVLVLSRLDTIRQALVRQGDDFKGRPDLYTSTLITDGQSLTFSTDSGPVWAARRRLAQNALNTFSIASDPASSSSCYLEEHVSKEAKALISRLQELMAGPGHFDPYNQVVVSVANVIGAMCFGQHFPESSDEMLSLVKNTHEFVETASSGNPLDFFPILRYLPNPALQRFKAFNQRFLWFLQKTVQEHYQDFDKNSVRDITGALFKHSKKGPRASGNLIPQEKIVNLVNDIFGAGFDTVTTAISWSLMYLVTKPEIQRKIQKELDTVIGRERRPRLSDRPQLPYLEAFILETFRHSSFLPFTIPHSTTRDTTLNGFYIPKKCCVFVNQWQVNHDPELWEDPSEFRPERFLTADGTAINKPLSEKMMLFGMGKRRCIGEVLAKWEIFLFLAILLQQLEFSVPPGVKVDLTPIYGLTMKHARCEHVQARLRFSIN
# Cytochrome P450 2C19 = Cytochrome P450 2C19 (Homo sapiens, UniProt P33261); experiment: Inhibition of human recombinant cytochrome P450 2C19; type: ADME; details: recombinant enzyme
# Chain of Cytochrome P450 2C19 (P33261 whole entry): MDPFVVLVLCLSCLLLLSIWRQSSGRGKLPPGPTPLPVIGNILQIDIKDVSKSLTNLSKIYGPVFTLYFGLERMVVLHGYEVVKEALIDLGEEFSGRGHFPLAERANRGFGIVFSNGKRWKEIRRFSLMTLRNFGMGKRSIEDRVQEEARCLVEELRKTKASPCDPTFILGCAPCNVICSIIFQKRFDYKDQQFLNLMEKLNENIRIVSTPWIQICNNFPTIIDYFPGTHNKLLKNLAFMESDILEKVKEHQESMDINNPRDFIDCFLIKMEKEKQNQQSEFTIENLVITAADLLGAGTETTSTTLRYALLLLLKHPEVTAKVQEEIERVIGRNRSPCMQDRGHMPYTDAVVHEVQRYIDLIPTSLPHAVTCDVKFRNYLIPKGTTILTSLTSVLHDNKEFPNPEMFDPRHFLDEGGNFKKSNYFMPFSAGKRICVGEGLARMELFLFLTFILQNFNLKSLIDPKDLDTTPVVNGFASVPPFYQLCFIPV
# Cytochrome P450 3A4 = Cytochrome P450 3A4 (Homo sapiens, UniProt P08684); experiment: Inhibition of human recombinant cytochrome P450 3A4; type: ADME; details: recombinant enzyme
# Chain of Cytochrome P450 3A4 (P08684 whole entry): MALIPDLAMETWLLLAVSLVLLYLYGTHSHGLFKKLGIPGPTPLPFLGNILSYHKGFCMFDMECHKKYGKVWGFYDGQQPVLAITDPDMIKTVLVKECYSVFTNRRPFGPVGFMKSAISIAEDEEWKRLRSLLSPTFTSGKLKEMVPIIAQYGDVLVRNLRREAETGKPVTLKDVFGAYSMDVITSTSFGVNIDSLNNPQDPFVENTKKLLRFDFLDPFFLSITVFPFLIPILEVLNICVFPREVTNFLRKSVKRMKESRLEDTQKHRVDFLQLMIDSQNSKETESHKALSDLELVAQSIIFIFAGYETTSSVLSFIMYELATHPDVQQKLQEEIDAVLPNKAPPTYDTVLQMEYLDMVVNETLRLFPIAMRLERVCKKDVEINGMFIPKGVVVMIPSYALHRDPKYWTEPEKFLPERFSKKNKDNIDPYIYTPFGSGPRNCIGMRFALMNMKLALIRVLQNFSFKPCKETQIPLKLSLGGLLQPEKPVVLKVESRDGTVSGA
# [3] = Oral bioavailability in Beagle dog at 3 mg/kg, po and 1 mg/kg, iv; type: ADME, organism-based, Canis lupus familiaris; details: in vivo
# [4] = Ratio of drug level in brain against serum in Sprague-Dawley rat at 3 mg/kg, po or 1 mg/kg, iv after 1 hr; type: ADME, organism-based; details: read-out: BBR
# [5] = Protein binding in human serum at 10 uM; type: ADME, organism-based; details: read-out: PPB (converted)
# [6] = Binding affinity to adrenergic alpha receptor by radioligand binding assay
# Adrenergic receptor beta = Adrenergic receptor beta (Homo sapiens, UniProt P08588+P07550+P13945); experiment: Binding affinity to beta adrenergic receptor by radioligand binding assay; type: protein assay
# Angiotensin II receptor = Angiotensin II receptor (Homo sapiens, UniProt P30556+P50052); experiment: Binding affinity to angiotensin2 receptor by radioligand binding assay; type: protein assay
# [7] = target: GABA-A receptor; anion channel; experiment: Binding affinity to GABA receptor by radioligand binding assay; type: protein-complex assay
# Cholecystokinin receptor = Cholecystokinin receptor (Homo sapiens, UniProt P32239+P32238); experiment: Binding affinity to cholecystokinin receptor by radioligand binding assay; type: protein assay
# [8] = target: Opioid receptors; mu/kappa/delta (Homo sapiens, UniProt P41145+P41143+P35372); experiment: Binding affinity to opioid receptor by radioligand binding assay; type: protein assay
# [9] = Binding affinity to sodium channel by radioligand binding assay
# [10] = target: Voltage-gated inwardly rectifying potassium channel KCNH2 (Homo sapiens, UniProt Q12809); experiment: Binding affinity to potassium channel by radioligand binding assay
# Chain of Voltage-gated inwardly rectifying potassium channel KCNH2 (Q12809 whole entry): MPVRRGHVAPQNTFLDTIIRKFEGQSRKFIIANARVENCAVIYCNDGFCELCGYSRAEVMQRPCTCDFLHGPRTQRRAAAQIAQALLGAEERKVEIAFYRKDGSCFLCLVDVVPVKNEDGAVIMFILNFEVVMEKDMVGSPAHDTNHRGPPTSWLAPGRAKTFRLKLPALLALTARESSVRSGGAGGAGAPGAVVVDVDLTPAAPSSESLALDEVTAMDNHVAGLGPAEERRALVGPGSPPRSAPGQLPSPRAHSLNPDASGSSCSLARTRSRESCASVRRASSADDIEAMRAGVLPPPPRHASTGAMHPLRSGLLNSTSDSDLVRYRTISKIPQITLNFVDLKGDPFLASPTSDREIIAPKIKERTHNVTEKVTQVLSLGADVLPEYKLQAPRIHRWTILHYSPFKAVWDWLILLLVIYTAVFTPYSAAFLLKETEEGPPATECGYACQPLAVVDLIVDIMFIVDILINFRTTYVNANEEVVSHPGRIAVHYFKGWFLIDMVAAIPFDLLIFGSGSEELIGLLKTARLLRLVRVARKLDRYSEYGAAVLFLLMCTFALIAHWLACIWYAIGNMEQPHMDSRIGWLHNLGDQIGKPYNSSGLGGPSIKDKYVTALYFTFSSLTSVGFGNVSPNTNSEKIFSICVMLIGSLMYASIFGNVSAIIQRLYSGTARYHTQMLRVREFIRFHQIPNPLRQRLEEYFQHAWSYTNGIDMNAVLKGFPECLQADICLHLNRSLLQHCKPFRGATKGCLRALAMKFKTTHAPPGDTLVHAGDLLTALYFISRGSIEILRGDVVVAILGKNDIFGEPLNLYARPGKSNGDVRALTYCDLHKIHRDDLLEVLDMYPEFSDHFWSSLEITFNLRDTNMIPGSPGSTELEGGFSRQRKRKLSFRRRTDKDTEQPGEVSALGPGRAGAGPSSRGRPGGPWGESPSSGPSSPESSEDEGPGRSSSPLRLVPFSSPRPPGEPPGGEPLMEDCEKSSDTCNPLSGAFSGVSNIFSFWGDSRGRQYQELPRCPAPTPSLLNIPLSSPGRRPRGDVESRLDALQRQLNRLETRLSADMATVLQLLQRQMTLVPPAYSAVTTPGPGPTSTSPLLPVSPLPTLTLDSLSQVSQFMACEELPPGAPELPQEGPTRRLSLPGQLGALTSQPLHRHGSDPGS
# [11] = target: Sodium-dependent noradrenaline transporter (Homo sapiens, UniProt P23975); experiment: Binding affinity to norepinephrine transporter by radioligand binding assay
# Chain of Sodium-dependent noradrenaline transporter (P23975 whole entry): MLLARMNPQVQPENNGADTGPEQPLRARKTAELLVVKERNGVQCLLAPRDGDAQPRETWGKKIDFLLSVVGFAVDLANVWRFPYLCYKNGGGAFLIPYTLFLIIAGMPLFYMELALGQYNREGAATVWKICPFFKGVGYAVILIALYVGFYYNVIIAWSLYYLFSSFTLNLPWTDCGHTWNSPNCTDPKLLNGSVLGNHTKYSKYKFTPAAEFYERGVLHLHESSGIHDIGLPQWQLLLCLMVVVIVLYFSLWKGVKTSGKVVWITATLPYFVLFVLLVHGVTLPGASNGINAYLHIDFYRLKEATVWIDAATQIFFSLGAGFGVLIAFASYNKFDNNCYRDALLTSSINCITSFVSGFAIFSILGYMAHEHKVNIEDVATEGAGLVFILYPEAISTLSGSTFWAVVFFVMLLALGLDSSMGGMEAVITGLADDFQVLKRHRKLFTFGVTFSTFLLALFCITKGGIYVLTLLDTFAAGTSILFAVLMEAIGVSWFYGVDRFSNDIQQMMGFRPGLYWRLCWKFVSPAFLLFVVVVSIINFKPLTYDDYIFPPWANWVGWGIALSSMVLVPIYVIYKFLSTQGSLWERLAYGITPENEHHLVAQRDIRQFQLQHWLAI
# [12] = target: Sodium-dependent dopamine transporter (Homo sapiens, UniProt Q01959); experiment: Binding affinity to dopamine transporter by radioligand binding assay
# Chain of Sodium-dependent dopamine transporter (Q01959 whole entry): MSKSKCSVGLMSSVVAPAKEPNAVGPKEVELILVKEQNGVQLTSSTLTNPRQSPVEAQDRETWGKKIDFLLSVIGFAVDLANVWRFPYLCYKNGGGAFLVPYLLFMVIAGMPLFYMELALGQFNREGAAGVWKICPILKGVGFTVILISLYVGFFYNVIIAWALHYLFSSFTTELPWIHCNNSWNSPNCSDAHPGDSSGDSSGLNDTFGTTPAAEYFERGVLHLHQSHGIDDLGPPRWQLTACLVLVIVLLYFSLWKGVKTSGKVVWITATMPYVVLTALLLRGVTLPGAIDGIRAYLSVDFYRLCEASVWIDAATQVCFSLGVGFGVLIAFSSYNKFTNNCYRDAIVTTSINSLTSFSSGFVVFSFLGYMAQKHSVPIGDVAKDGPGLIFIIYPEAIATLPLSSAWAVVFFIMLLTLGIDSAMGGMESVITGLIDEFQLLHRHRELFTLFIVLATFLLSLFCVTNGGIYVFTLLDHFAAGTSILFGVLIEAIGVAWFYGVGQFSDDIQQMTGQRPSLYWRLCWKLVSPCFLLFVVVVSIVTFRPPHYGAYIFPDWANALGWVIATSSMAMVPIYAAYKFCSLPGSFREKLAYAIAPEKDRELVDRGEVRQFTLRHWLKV
# Mus musculus = experiment: Decrease in stress-induced hyperthermia in 129S6/SvEvTac mouse at 20 mg/kg, po; type: functional, organism-based; set-up: dose 20 mg/kg
# [13] = target: Muscarinic acetylcholine receptor; experiment: Binding affinity to muscarinic receptor by radioligand binding assay; type: protein assay
# [14] = target: Adrenergic receptor alpha-1 (Rattus norvegicus) (UniProt P15823+P23944+P43140); experiment: Displacement of [3H]prazosin from Adrenergic alpha-1 receptor in rat cerebral cortex cells at 1 uM; type: cell-based
# [15] = Toxicity in po dosed Beagle dog; type: organism-based, Canis lupus familiaris; details: in vivo
# [16] = target: 5-hydroxytryptamine receptor 2A (Homo sapiens, UniProt P28223)
# Chain of 5-hydroxytryptamine receptor 2A (P28223 whole entry): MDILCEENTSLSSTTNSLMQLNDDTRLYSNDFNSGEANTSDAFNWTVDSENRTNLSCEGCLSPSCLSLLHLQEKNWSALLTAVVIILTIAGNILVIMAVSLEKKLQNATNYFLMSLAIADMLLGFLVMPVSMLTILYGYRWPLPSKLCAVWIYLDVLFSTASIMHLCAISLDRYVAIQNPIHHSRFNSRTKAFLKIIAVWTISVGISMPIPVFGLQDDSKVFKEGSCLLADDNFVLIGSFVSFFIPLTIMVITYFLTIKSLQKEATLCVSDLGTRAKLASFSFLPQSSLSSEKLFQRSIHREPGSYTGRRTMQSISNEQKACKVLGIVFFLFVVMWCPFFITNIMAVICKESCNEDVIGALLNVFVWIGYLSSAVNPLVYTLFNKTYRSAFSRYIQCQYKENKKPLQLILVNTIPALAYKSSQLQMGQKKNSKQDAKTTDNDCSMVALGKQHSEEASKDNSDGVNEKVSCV
# Description: Binding affinity to 5HT2A receptor by radioligand binding assay
smiles,measurement,setting,value
CC(=O)Nc1cccc(N2CCN(CCCCNS(=O)(=O)CC3CCCCC3)CC2)c1 [NALUZOTAN],Ki,[1],> 5000 nM
same,Ki,[2],> 5000 nM
same,Inhibition,Cytochrome P450 1A2,Not Active
same,Inhibition,Cytochrome P450 2C19,Not Active
same,Inhibition,Cytochrome P450 3A4,Not Active
same,bioavailability,[3],16%
same,Kp at 1 h,[4],0.5
same,fraction unbound at 10 µM,[5],0.08
same,Ki,[6],> 2000 nM
same,Ki,Adrenergic receptor beta,> 2000 nM
same,Ki,Angiotensin II receptor,> 2000 nM
same,Ki,[7],> 2000 nM
same,Ki,Cholecystokinin receptor,> 2000 nM
same,Ki,[8],> 2000 nM
same,Ki,[9],> 2000 nM
same,Ki,[10],> 2000 nM
same,Ki,[11],> 2000 nM
same,Ki,[12],> 2000 nM
same,Activity,Mus musculus,Active
same,Ki,[13],> 2000 nM
same,Activity,[14],47%
same,MTD,[15],600 mg/kg
same,Ki,[16],> 2000 nM
